Active and inactive are the calls of the source.
Key:
[1] = biological target: Heat shock protein HSP 90-alpha (Homo sapiens, UniProt P07900); format: functional, organism-based
Hexokinase HKDC1 = biological target: T1, Hexokinase HKDC1 (Homo sapiens, UniProt Q2TB90); test: activation of HKDC1 glucose phosphorylation – biochemical, W721R variant, dose response (AID 504730); format: functional
T1 sequence (Q2TB90 whole entry): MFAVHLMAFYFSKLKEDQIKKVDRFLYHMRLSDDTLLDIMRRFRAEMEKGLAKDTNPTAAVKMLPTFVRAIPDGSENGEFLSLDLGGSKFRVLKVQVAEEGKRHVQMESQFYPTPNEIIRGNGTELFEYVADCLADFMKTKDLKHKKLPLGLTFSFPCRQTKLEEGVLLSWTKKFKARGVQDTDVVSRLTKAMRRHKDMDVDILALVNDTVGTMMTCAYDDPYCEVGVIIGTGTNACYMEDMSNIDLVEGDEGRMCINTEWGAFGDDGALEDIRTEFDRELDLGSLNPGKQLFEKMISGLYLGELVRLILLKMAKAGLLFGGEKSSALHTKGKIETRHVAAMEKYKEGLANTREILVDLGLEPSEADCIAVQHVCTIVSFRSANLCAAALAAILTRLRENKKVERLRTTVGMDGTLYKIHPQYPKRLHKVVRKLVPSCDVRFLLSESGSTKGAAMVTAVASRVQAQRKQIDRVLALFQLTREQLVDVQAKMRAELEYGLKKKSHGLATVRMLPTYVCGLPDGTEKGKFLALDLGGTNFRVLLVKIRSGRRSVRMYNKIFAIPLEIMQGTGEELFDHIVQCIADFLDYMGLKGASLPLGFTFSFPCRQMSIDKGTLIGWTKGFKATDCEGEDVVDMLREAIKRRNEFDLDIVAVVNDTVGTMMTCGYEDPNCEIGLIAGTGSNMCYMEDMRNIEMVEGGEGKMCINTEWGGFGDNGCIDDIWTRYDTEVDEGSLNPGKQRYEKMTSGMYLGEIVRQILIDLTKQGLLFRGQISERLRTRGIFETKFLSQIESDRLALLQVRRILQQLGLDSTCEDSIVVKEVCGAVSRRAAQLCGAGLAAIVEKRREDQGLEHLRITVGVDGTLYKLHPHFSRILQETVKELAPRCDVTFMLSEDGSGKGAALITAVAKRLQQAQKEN

Hexokinase-1 = biological target: T2, Hexokinase-1 (Homo sapiens, UniProt P19367); test: HK1 enzyme activation by HKDC1 hits – biochemical, selectivity assay for HKDC1 activator project, dose response (AID 504762); format: functional
T2 sequence (P19367 whole entry): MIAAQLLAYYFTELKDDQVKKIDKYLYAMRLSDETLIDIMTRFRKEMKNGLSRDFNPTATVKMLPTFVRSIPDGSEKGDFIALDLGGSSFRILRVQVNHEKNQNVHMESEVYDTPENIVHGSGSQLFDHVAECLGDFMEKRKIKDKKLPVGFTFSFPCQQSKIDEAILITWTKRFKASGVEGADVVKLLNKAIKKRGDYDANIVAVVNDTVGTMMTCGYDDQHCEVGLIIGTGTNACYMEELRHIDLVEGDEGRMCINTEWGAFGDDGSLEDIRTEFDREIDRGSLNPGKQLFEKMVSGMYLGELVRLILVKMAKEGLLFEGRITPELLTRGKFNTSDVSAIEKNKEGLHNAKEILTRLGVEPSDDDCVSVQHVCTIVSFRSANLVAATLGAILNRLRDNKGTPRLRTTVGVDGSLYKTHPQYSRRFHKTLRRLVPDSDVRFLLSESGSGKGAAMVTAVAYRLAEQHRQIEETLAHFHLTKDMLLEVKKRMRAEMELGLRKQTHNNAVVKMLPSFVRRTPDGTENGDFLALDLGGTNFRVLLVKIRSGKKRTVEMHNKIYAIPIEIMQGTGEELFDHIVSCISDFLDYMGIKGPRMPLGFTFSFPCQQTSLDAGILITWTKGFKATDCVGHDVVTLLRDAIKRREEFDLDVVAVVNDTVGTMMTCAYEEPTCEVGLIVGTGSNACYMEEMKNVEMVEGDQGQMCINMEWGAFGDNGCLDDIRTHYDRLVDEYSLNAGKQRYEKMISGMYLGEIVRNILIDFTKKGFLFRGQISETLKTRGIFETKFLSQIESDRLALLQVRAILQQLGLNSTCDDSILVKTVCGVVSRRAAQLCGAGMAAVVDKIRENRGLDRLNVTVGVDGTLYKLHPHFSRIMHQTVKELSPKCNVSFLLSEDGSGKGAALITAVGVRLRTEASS

Nonstructural protein 1 = Nonstructural protein 1 (Influenza A virus, UniProt Q194T2); format: functional, Influenza A virus (A/California/07/2009(H1N1))
Nonstructural protein 1, sequence (Q194T2 whole entry): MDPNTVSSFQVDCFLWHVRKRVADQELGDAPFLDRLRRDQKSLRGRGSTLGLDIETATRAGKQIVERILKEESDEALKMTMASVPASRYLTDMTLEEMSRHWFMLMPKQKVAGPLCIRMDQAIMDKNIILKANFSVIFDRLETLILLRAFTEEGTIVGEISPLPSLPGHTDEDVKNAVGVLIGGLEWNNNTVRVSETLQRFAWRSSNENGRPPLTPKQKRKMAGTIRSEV

[2] = reduction of Shn3 3'UTR-driven luciferase in osteoblasts – cell-based, Clone20 osteoblasts, firefly luciferase, cherry-picked, dose response (AID 624132); format: functional;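 also: firefly luciferase luminescence from reporter carrying the Shn3 3'UTR in osteoblasts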
[3] = biological target: T3, G-protein coupled receptor 55 (Homo sapiens, UniProt Q9Y2T6); test: inhibition of LPI-stimulated GPR55 beta-arrestin translocation – imaging, U2OS, beta-arrestin-GFP, LPI agonist, primary screen (AID 2013); format: functional;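 also: antagonist potency measured as reduced agonist-driven arrestin aggregation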
T3 sequence (Q9Y2T6 whole entry): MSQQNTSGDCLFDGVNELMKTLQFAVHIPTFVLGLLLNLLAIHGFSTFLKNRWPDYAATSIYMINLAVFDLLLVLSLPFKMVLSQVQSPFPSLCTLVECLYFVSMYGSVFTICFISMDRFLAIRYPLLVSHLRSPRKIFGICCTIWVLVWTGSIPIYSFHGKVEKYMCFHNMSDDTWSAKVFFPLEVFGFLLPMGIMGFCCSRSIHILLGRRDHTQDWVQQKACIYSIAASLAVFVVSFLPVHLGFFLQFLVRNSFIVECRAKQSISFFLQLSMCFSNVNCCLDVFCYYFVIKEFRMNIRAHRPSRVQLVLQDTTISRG

Cannabinoid receptor 2 [4] = biological target: T4, Cannabinoid receptor 2 (Homo sapiens, UniProt P34972); test: SAR analysis of agonists of the Cannabinoid Receptor 2 using an Image-Based Assay. [Related pubchem assays (depositor defined):AID2013, AID2026]; format: functional
T4 sequence (P34972 whole entry): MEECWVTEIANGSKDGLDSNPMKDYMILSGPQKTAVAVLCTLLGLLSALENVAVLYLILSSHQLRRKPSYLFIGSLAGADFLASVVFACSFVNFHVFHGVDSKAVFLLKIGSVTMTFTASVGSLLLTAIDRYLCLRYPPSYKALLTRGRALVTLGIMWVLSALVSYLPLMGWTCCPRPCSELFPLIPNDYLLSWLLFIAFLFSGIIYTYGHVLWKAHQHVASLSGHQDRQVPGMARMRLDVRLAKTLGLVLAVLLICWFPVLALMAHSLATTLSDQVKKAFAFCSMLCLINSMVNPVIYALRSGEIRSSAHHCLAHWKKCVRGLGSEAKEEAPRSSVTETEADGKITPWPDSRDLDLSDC

Cannabinoid receptor 1 [5] = biological target: T5, Cannabinoid receptor 1 (Homo sapiens, UniProt P21554); test: SAR analysis of agonists of the Cannabinoid Receptor 1 using an Image-Based Assay - Set 2. [Related pubchem assays (depositor defined):AID2013, AID2026]; format: functional
T5 sequence (P21554 whole entry): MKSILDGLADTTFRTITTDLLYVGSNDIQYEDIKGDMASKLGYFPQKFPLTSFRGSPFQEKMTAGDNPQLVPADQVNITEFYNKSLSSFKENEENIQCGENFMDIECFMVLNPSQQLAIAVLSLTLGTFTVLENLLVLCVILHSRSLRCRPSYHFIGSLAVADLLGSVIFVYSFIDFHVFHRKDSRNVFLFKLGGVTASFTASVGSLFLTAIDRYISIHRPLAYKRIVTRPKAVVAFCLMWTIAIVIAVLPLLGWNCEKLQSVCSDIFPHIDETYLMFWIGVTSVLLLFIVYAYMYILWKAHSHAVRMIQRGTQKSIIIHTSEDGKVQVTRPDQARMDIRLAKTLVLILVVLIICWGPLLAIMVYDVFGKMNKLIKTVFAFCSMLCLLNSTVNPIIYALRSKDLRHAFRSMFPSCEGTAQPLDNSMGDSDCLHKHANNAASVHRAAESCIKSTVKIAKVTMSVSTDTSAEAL

[6] = biological target: T3, G-protein coupled receptor 55; test: blockade of LPI-induced GPR55 arrestin translocation – imaging, U2OS, beta-arrestin-GFP, LPI agonist, set 2, SAR follow-up (AID 2820); format: functional
[7] = biological target: SWI/SNF-related matrix-associated actin-dependent regulator of chromatin subfamily A member 2 (Homo sapiens, UniProt P51531); test: Luminescence-based cell-based high throughput dose response assay to identify activators of the function of SWI/SNF related, matrix associated, actin dependent regulator of chromatin, subfamily a, member 2 (SMARCA2, BRM).; format: functional
SWI/SNF-related matrix-associated actin-dependent regulator of chromatin subfamily A member 2, sequence (P51531 whole entry): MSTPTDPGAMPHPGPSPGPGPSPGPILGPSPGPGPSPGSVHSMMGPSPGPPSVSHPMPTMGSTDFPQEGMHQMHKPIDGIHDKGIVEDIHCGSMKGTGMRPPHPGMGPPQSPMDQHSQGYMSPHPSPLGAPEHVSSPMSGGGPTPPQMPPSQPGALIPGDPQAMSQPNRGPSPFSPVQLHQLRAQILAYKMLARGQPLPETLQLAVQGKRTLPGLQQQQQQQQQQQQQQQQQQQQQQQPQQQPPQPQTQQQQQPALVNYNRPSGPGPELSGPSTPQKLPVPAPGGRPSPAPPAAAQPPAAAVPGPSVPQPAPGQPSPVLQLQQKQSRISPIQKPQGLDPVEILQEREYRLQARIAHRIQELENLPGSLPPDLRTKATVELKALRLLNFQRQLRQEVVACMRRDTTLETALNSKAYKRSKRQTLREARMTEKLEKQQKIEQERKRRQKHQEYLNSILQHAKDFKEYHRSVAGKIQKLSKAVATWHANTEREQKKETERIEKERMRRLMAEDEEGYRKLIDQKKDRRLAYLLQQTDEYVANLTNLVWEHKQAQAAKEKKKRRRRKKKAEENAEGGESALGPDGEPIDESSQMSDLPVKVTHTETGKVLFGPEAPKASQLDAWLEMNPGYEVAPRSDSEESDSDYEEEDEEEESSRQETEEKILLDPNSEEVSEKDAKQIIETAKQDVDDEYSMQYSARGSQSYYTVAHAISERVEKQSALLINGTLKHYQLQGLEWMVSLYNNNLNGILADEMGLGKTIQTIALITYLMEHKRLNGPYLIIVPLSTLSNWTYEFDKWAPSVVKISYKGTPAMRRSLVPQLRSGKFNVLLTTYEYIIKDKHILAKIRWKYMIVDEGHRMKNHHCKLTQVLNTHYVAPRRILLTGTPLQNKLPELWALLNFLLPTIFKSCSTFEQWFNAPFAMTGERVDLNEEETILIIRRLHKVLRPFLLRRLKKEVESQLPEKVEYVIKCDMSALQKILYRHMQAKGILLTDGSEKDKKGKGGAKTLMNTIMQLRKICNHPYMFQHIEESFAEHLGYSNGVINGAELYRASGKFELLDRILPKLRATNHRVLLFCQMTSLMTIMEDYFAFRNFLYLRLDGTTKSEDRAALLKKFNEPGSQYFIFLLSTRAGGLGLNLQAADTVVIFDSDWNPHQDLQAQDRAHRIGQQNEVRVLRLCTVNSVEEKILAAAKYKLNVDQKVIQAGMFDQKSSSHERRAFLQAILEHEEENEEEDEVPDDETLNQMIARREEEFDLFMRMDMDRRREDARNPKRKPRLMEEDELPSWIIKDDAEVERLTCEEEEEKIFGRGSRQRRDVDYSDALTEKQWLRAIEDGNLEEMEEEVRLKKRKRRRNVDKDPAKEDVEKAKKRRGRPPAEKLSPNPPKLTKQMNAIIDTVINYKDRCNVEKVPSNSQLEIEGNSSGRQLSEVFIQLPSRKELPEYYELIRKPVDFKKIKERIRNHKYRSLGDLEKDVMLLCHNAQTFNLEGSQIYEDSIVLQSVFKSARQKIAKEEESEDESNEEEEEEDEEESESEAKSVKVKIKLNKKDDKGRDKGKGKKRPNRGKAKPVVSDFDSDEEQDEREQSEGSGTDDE

[8] = biological target: T6, G-protein coupled receptor 35 (Homo sapiens, UniProt Q9HC97); test: SAR analysis of Antagonists of the GPR35 Receptor using an Image-Based Assay - Set 3. [Related pubchem assays (depositor defined):AID2013, AID2026]; format: functional
T6 sequence (Q9HC97 whole entry): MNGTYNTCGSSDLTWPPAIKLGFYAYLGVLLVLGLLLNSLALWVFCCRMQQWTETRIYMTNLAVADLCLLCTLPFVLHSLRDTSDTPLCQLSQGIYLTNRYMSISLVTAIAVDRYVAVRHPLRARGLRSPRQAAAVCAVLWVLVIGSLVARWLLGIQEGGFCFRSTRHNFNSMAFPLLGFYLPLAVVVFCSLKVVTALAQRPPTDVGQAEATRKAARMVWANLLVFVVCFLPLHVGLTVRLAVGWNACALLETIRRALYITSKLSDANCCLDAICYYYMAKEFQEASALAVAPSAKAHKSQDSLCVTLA

[9] = biological target: T6, G-protein coupled receptor 35; test: SAR analysis of Agonists of the GPR35 Receptor using an Image-Based Assay - Set 2. [Related pubchem assays (depositor defined):AID2013, AID2026]; format: functional
Cannabinoid receptor 2 [10] = biological target: T4, Cannabinoid receptor 2; test: SAR analysis of antagonists of the Cannabinoid Receptor 2 using an Image-Based Assay. [Related pubchem assays (depositor defined):AID2013, AID2026]; format: functional
Cannabinoid receptor 1 [11] = biological target: T5, Cannabinoid receptor 1; test: SAR analysis of antagonists of the Cannabinoid Receptor 1 using an Image-Based Assay - Set 2. [Related pubchem assays (depositor defined):AID2013, AID2026]; format: functional
[12] = Counterscreen for activators of the function of SWI/SNF related, matrix associated, actin dependent regulator of chromatin, subfamily a, member 2 (SMARCA2, BRM): Luminescence-based cell-based high throughput dose response assay to identify non-selective compounds using the VP16 reporter assay.; format: functional
[13] = biological target: T7, Runt-related transcription factor 1/Core-binding factor subunit beta (Homo sapiens, UniProt Q01196+Q13951); test: Runt domain/CBFb-SMMHC interaction disruptors – biochemical, TR-FRET (AID 1438); format: protein assay
T7 sequence (Q01196 whole entry, the tested form may be a part): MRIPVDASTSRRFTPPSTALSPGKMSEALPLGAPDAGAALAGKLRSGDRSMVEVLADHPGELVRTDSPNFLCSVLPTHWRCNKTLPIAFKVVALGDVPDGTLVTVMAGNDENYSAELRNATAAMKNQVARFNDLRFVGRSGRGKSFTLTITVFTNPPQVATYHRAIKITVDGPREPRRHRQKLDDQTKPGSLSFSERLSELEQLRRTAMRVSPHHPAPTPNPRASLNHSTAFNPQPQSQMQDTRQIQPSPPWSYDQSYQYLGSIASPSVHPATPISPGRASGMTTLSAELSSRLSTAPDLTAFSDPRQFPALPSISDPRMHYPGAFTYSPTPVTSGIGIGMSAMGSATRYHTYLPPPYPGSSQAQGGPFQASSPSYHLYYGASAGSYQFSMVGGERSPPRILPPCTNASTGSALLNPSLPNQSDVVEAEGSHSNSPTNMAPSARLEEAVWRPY
T7 sequence (Q13951 whole entry, the tested form may be a part): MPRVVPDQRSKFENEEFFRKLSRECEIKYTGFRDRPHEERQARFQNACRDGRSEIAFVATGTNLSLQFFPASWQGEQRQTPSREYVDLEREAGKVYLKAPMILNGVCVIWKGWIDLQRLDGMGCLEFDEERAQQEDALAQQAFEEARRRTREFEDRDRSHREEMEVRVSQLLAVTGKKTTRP

[14] = biological target: T7, Runt-related transcription factor 1/Core-binding factor subunit beta; test: disruptors of Runt domain/CBFb-SMMHC interaction – biochemical, FRET, Cerulean-Runt, Venus-CBFb-SMMHC, uHTS, […] (AID 1434); format: protein assay
[15] = biological target: Intestinal-type alkaline phosphatase (Homo sapiens, UniProt P09923); test: human intestinal alkaline phosphatase activators, dose response, biochemical, luminescence, uHTS hits (AID 463120); format: functional
Intestinal-type alkaline phosphatase, sequence (P09923 whole entry): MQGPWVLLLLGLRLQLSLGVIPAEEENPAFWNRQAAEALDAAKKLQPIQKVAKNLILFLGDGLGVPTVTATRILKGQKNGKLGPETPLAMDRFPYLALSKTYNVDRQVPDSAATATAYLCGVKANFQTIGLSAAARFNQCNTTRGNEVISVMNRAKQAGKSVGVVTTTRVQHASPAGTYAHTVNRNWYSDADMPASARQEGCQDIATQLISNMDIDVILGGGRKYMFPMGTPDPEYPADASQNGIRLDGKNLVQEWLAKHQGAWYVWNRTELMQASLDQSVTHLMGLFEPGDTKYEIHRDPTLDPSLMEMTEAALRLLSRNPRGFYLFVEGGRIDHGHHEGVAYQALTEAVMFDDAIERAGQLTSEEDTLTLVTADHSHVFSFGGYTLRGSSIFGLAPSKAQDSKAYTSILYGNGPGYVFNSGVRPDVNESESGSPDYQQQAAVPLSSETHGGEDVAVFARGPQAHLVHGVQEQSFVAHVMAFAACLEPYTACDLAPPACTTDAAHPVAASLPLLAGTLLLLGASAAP

[16] = biological target: Alkaline phosphatase, placental type (Homo sapiens, UniProt P05187); test: human placental alkaline phosphatase inhibition – biochemical, luminescence, confirmation (AID 1512); format: functional
Alkaline phosphatase, placental type, sequence (P05187 whole entry): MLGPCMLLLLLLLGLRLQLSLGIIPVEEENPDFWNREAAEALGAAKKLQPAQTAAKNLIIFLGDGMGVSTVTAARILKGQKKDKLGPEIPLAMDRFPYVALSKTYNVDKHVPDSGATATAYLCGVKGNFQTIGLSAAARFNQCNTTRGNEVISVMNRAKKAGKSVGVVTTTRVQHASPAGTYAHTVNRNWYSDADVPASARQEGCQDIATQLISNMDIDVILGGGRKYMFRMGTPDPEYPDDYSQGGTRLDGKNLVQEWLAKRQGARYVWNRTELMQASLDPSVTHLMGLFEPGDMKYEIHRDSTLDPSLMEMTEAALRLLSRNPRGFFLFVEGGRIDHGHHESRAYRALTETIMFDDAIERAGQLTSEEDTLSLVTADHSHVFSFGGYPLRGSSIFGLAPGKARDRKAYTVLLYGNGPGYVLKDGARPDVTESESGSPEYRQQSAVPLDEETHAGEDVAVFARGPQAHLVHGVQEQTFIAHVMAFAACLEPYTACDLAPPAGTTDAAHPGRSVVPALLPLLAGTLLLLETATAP

[17] = biological target: T8, Alkaline phosphatase, tissue-nonspecific isozyme (Homo sapiens, UniProt P05186); test: potency against alkaline phosphatase TNAP – biochemical, luminescent, dose response, SAR follow-up (AID 1056)
T8 sequence (P05186 whole entry): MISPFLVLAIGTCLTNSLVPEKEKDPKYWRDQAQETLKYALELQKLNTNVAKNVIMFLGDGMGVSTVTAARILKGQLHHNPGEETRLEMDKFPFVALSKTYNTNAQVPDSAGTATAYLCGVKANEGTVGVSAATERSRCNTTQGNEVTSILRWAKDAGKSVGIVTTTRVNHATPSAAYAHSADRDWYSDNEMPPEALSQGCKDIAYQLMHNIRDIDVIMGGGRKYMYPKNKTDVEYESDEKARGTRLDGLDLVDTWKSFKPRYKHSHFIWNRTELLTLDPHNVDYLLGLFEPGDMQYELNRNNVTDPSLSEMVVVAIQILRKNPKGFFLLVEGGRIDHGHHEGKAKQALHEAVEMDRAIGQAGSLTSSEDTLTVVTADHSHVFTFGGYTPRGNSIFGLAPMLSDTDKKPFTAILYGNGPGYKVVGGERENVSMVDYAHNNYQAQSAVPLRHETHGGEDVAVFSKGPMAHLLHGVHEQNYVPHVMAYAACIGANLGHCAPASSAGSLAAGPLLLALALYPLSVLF

Cannabinoid receptor 2 [18] = biological target: T4, Cannabinoid receptor 2; test: SAR analysis of agonists of the Cannabinoid Receptor 2 using an Image-Based Assay - Set 3. [Related pubchem assays (depositor defined):AID2013, AID2026]; format: functional
[19] = biological target: T3, G-protein coupled receptor 55; test: SAR Analysis of Selective Antagonists of GPR55 using an Image-Based Assay - Set 4. [Related pubchem assays (depositor defined):AID2013, AID2026]; format: functional
Cannabinoid receptor 1 [20] = biological target: T5, Cannabinoid receptor 1; test: SAR analysis of antagonists of the Cannabinoid Receptor 1 using an Image-Based Assay - Set 4. [Related pubchem assays (depositor defined):AID2013, AID2026]; format: functional
Cannabinoid receptor 2 [21] = biological target: T4, Cannabinoid receptor 2; test: SAR analysis of antagonists of the Cannabinoid Receptor 2 using an Image-Based Assay - Set 3. [Related pubchem assays (depositor defined):AID2013, AID2026]; format: functional

Row | Compound | IC50 [3] | EC50 (Cannabinoid receptor 2 [4]) | EC50 (Cannabinoid receptor 1 [5]) | IC50 [6] | IC50 [8] | EC50 [9] | IC50 (Cannabinoid receptor 2 [10]) | IC50 (Cannabinoid receptor 1 [11]) | further results
1 | CC(N/N=C(\S)N1CCN(c2ccccn2)CC1)c1nccc2ccccc12 (configuration not stated) |  |  |  |  |  |  |  |  | AC50 [1]: 2.58 µM (active); EC50 (Hexokinase HKDC1): 2.19 µM (active); EC50 (Hexokinase-1): > 80 µM (inactive); IC50 (Nonstructural protein 1): 2.43 µM (active); AC50 [2]: < 0.26 µM (active)
2 | Cc1ccc2nc3c(cc(C(=O)NCc4ccco4)c(=N)n3C3CCCC3)c(=O)n2c1 | 3.98 µM (active) | > 32 µM (inactive) | > 32 µM (inactive) | 0.354 µM (active) | > 32 µM (inactive) | > 32 µM (inactive) | > 32 µM (inactive) | > 32 µM (inactive) | EC50 [7]: > 91.2 µM (inactive); EC50 [12]: > 91.2 µM (inactive)
3 | COc1ccc2o/c(=N\O)c(C(=O)Nc3ccccc3OC)cc2c1 |  |  |  |  |  |  |  |  | IC50 [13]: 60.5 µM (inactive); IC50 [14]: 59 µM (inactive)
4 | Cc1ccc(O)c(-c2cc(C(=O)NCc3ccc4c(c3)OCO4)[nH]n2)c1 |  |  |  |  |  |  |  |  | EC50 [15]: 13 µM (active)
5 | Cc1ccc(-c2nnc(SCC(=O)c3ccc(O)c(O)c3)n2-c2ccc(Cl)cc2)cc1 |  |  |  |  |  |  |  |  | IC50 [16]: 15.3 µM (active); IC50 [17]: > 100 µM (inactive)
6 | CCOC(=O)c1cc2c(=O)n3ccccc3nc2n(Cc2ccccc2)c1=N | < 0.5 µM (active) | > 32 µM (inactive) | > 32 µM (inactive) | 0.878 µM (active) | > 32 µM (inactive) | > 32 µM (inactive) | > 32 µM (inactive) | > 32 µM (inactive) | EC50 (Cannabinoid receptor 2 [18]): > 32 µM (inactive); IC50 [19]: > 32 µM (inactive); IC50 (Cannabinoid receptor 1 [20]): 0.069 µM (active); IC50 (Cannabinoid receptor 2 [21]): > 32 µM (inactive)
